Assay results as given in publication PMC9359617 (Nature structural & molecular biology, 2022).
Where two headings read alike, the source gives them in different places.

Key:
[1] = target: T1, CaChs2 (Candida albicans, UniProt P30572); test: CaChs2 activity assay; format: biochemical; conditions: purified recombinant CaChs2; formation of water-insoluble chitin polymers from UDP-GlcNAc
T1 sequence (P30572 1-1009): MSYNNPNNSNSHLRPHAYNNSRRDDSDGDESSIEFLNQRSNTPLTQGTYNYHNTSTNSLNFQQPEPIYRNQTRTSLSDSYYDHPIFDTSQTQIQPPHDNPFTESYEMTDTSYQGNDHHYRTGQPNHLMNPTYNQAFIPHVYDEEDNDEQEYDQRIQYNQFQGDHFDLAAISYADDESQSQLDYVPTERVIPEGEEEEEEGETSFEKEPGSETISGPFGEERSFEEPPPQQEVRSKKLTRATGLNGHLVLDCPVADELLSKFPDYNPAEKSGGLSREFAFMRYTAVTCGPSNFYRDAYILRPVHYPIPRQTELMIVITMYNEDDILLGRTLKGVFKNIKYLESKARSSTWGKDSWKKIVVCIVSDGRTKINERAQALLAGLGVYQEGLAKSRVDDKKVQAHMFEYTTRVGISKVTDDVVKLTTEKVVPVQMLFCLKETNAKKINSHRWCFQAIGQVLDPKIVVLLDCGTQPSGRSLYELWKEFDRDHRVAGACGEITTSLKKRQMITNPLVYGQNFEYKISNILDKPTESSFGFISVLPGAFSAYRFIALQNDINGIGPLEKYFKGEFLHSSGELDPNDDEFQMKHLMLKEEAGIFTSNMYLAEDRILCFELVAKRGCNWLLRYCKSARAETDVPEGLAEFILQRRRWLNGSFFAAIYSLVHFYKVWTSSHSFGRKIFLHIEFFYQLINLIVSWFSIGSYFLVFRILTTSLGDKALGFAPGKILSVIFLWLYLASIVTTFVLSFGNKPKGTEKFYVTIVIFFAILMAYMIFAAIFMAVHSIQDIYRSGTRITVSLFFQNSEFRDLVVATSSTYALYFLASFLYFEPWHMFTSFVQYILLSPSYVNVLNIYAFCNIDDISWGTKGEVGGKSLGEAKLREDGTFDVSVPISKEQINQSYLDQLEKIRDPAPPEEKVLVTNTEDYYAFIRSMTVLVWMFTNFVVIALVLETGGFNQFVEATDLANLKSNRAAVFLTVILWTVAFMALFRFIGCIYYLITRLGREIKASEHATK

[2] = system: CaChs2 W647A; test: Isothermal titration calorimetry, CaChs2 W647A; format: binding, Candida albicans; conditions: ITC
[3] = system: C. albicans; conditions: against C. albicans; lower end printed as < 0.5; cited from earlier work
[4] = target: T1, CaChs2; test: CaChs2 inhibition assay; format: biochemical
[5] = target: CaChs2 Q643A (Candida albicans, UniProt P30572, Q643A); test: Isothermal titration calorimetry, CaChs2 Q643A; format: binding; conditions: Q643A mutant, ITC
[6] = target: CaChs2 WT (Candida albicans, UniProt P30572); test: Isothermal titration calorimetry, CaChs2 WT; format: binding
[7] = system: CaChs2 T631A; test: CaChs2 inhibition assay, T631A mutant; format: biochemical, Candida albicans; conditions: alanine mutation of T631
[8] = target: the molecule itself; test: cryo-EM structure

Molecule CC(=O)N[C@H]1[C@@H](OP(=O)(O)OP(=O)(O)OC[C@H]2O[C@@H](n3ccc(=O)[nH]c3=O)[C@H](O)[C@@H]2O)O[C@H](CO)[C@@H](O)[C@@H]1O [UDP-GlcNAc] has a Km [1] of 6 ± 0.7 mM and a kcat [1] of 8.6 ± 2.7 min−[1].

For C[C@@H]([C@H](N)C(=O)N[C@H](C(=O)O)[C@H]1O[C@@H](n2ccc(=O)[nH]c2=O)[C@H](O)[C@@H]1O)[C@H](O)c1ccc(O)cn1 [nikkomycin Z], the “reduction of affinity to nikkomycin Z, mutant vs WT” value [2] is given as “about 18 fold”, the MIC80 [3] is given as 0.5 to 32 µg/mL and the Ki [4] is given as 1500 ± 500 nM. For the same molecule, the “difference between Ki of the inhibitor and Km of UDP-GlcNAc” value ([4]; affinity of nikkomycin Z to CaChs2 compared with UDP-GlcNAc) was “three orders of magnitude”, the “effect of the mutation on affinity to nikkomycin Z” value [5] was “only moderately affects the affinity” and the Kd [6] was ~190 nM.

With NC(=O)OC[C@H](O)[C@@H](O)[C@H](N)C(=O)N[C@H](C(=O)O)[C@H]1O[C@@H](n2cc(C(=O)O)c(=O)[nH]c2=O)[C@H](O)[C@@H]1O [polyoxin D] the “decrease of affinity for polyoxin D, mutant vs WT” value [7] was “about threefold” and the Ki ([4]; purified CaChs2) was 3200 ± 1400 nM.

B1: Chs2 from Candida albicans (CaChs2), wild type (enzyme, UniProt P30572 1-1009, looked up)
chain: T1 sequence (P30572 1-1009)
In the case of B1, the “stoichiometry N” value [8] is reported as 2.
